# Entries after “also recorded” stand apart in the source; their conditions may differ.
# Columns and labels:
# [1] = Distribution of 3H-FTS in plasma and liver; assay type: in vivo, rat; details: 5 mg/Kg
# Description: For each set of experiments, FTS was prepared in chloroform (0.1 M stock solution) and maintained at −70° C. The chloroform was removed from the stock solution by a stream of nitrogen prior to use, and FTS was then dissolved either in DMSO (in vitro experiments) or in ethanol (in vivo experiments). The FTS/DMSO solutions were diluted with DMEM/10% fetal calf serum (FCS) to yield a 100×drug stock solution containing 10% DMSO. A portion of this solution was applied to the cells at a dilution of 1:100. The FTS/ethanol solution was alkalinized by the addition of 1N NaOH, then diluted with phosphate-buffered saline (PBS) to obtain a solution of 1.0 mg FTS/ml (pH 8.0, 0.5% ethanol). This solution (1-1.5 ml per rat) was used in the in vivo experiments. In a separate set of experiments, the distribution of FTS in the plasma and in the liver was assayed by the use of 3H -FTS (12.5 ci/mmole, ARC, St. Louis Mo.). […] The estimated concentration FTS in the liver at peak times (20 to 60 min) was 29 μM. Drug levels in the liver declined thereafter to the level of 0.5 μM at 24 h.
# lymphocytes of EAE mice = experiment: In vitro mitogenic response (LPS, PLP 139-151 peptide) of lymph node lymphocytes of EAE mice; assay type: cell-based, mouse; details: 25 microM FTS; lymphocytes of EAE mice day 10
# MRL/lpr mice = experiment: Proteinuria (dipstick) in MRL mice; assay type: in vivo, mouse; details: MRL/lpr mice treated 5 days a week from 6 weeks of age
# Description: The presence of proteinuria was measured on freshly expressed urine samples at weekly intervals. The protein content was evaluated semiquantitatively using a commercial dipstick method (Macherey-Nagel, Germany). This colorimetric assay is specific for albumin, with approximate protein concentration as follows: 0, 30, 100 and 500 mg/dl (mg%).
# Ras = Ras expression in rat liver membranes (Western blot); assay type: in vivo
# Description: The levels of Ras proteins in the rat livers were determined by immunoblotting assays using anti Ras antibodies (PanRasAb03, Santa Cruz) as detailed previously (4, 5). Briefly, the livers were homogenized (10% w/v) in 0.32M sucrose, 50 mM Tris HCl, pH 7.4 buffer containing 3mM EDTA, 1 mM EGTA, 5 μg/ml pepstatine, and 5 units/ml opsotonin. Nuclei and cell debris were removed by a 10-minute 1000×g spin. The plasma membrane-enriched fraction was obtained by a 20,000×g 30 minute spin. The resulting pellets were resuspended in homogenization buffer and samples containing 20 μg proteins were used for 12.5% SDS-PAGE (mini gels). The gels were subjected to immunoblotting assays as described previously (4). Each western blot was analyzed 3 times and the data in FIG. 17 represent the means±SD OD of these 3 blots. Ras was also determined by immunohistochemistry.
# [2] = system: lymphocytes from naive SJL mice; experiment: ConA- and LPS-induced proliferation of lymphocytes from naive SJL mice in vitro (3H-thymidine); assay type: cell-based; details: Mus musculus, Lymphocyte, 48 h stimulation
# [3] = system: Balb-C mice immunized with ApoH; experiment: Autoantibodies in Balb-C mice immunized with ApoH (induced APS model); assay type: in vivo, mouse; details: 9 per group
# Description: Similar antibody assays were performed with the sera of Balb-C mice (9 per group) immunized with ApoH 10 μg in complete Freund's adjuvant with boosts given 2 and 6 weeks later in incomplete adjuvant.
# [4] = system: TAA-induced liver cirrhosis in Wistar rats; experiment: Thioacetamide (TAA)-induced liver cirrhosis in rats, liver histopathology; assay type: in vivo, rat
# Description: Liver cirrhosis was induced in rats by intraperitoneal (i.p.) administration of TAA 200 mg/kg twice weekly for 12 weeks, as previously described (1, 2).
# The FTS was dissolved in PBS and administered i.p. 3 times a week to rats according to their assigned groups. Four groups containing 6 rats each were treated as follows. One group received TAA 200 mg/kg i.p. twice a week and i.p. injections of PBS 3 days a week for 12 weeks (cirrhotic controls for the FTS-treated groups). A second group received TAA for 12 weeks and FTS 5 mg/kg, 3 times a week. […] The two control groups consisted of one that received PBS injections without TAA for 12 weeks (normal controls) and a group of 5 rats that received only FTS 5 mg/kg i.p. for 12 weeks to monitor the appearance of adverse effects.
# The rats were sacrificed at the completion of the treatment protocols. Their livers were removed and midsections of the left lobes of the livers were processed for light microscopy. This processing consisted of fixing the specimens in a 5% neutral formol solution, embedding the specimens in paraffin, making sections of 5 μm thickness, and staining the sections with hematoxylin and eosin. Reticulin stain was performed to enhance the visualization of the extent and distribution of liver fibrosis. The tissue slices were scanned and scored by two expert pathologists who were not aware of the sample source. The degree of inflammation and fibrosis was expressed as the mean of 10 different fields in each slide that had been classified on a scale of 0-3 according to Muller, et al(3).
# CR-EAE in SJL/J mice = experiment: Chronic-relapsing EAE (CR-EAE) by transfer of PLP-sensitized lymphocytes, clinical signs; assay type: in vivo, mouse
# [5] = system: TAA-induced acute liver injury in rats; experiment: TAA-induced acute liver damage in FTS-pretreated rats; assay type: in vivo, rat; details: TAA + FTS 5 mg/kg daily from 3 days before TAA; 52 h; Mean ± SD, n = 5
# Description: To exclude the possibility that the effect of FTS on hepatic fibrosis is due to anti-inflammatory rather than anti fibrotic activity, acute liver damage was induced by TAA (3 injections of 400 mg/kg, i.p.) in a separate group of FTS-pretreated rats. Blood was drawn 52 h after the first TAA injection for the measurement of serum levels of hepatic enzymes and blood ammonia, and liver tissue was […]. TAA was administered in 3 consecutive injections of 400 mg/kg, i.p. in 24 h intervals. Serum levels of liver enzymes, blood ammonia and liver histology were determined 52 h after the first TAA injection. FTS administration (5 mg/kg daily), was started 3 days prior to the first TAA injection.
# [6] = FTS 5 mg/kg alone, 12 weeks, no TAA
# [7] = TAA + FTS 5 mg/kg 3 times/week for 12 weeks
compound,measurement,setting,value
"CC(C)=CCC/C(C)=C/CC/C(C)=C/CSc1ccccc1C(=O)O [FTS, farnesyl thiosalicylic acid]",estimated concentration of FTS in the liver at peak times,[1],29 µM
same,"peak liver levels, % of the injected dose",[1],1.75%
same,"peak plasma levels, % of the injected dose",[1],10.7%
same,peak times in the liver,[1],20 to 60 min
same,concentration at 24 h,"[1]; Wistar, rat, liver, other: injected (type of injection not given), read-out: drug level in the liver at 24 h",500 nM
same,suppression of the LPS mitogenic response,lymphocytes of EAE mice,91%
same,suppression of the PLP mitogenic response,lymphocytes of EAE mice,62%
same,proteinuria,MRL/lpr mice,very low levels of proteinuria; also recorded: normalized
same,decrease in Ras expression in the livers of TAA-treated rats,Ras; FTS treatment,70%
same,"Ras levels in liver membranes, fold higher than control group","Ras; TAA+FTS treated group, TAA alone 17.6±2.0-fold",4.9±1.2 fold
same,inhibition at 12.5 µM,[2]; 12.5 μM FTS,22 to 50%
same,inhibition at 25 µM,[2]; 25 μM FTS,66 to 71%
same,inhibition at 50 µM,[2]; 50 μM FTS,95 to 98%
same,"anti-ApoH, anti-ds DNA and anti-phosphatidyl-ethanolamine levels",[3],significant effect of FTS treatment
same,Fibrotic septa (0-3),[4]; [6],0
same,Nodule formation (0-3),[4]; [6],0
same,Fibrotic septa (0-3),[4]; [7],0.9±0.5
same,Nodule formation (0-3),[4]; [7],0.7 ± 0.6
same,clinical course of CR-EAE (FIG. 2),CR-EAE in SJL/J mice; FTS 5 mg/kg/day from day of cell transfer,milder form of CR-EAE
same,mortality in CR-EAE,"CR-EAE in SJL/J mice; FTS 5 mg/kg/day, vehicle group 30%",none of them died
same,total relapses of the paralytic disease,"CR-EAE in SJL/J mice; follow-up 2-3 months, n=7, control 9",5
same,AST,[5],2996 ± 364 IU/l
same,Blood Ammonia,[5],8.9 ± 2.3 µg/mL
same,Hepatic inflammation and cell necrosis (score of 0-3),[5],2.5 ± 0.6

# Source: patent US6462086B1, “Non-malignant disease treatment with Ras antagonists” (Ramot University Authority for Applied Research and …, priority 1999, dated 2002)
